The nature of assay [1]: Compound taste was tested with reference of sucrose sweetness; +/ - - = Sweet/ very bitter.
Assay [2] in a line: Compound taste was tested with reference of sucrose sweetness; + / - = Sweet/bitter.
A short description of assay [3]: Compound taste was tested with reference of sucrose sweetness; +/- = Sweet/bitter.
The nature of assay [4]: compound taste was tested with reference of sucrose sweetness; + / - - = sweet / bitter.
Assay [5] can be described thus: Value represents the number of times the compound was as sweet as sucrose; +/- - - = Sweet/ very bitter.
Assay [6] can be described thus: Value represents the number of times the compound was as sweet as sucrose.
A short description of assay [7]: Compound taste was tested with reference of sucrose sweetness; + / - - = Sweet/very bitter.
Assay [8] can be described thus: Compound taste was tested with reference of sucrose sweetness; - = Bitter.
The nature of assay [9]: Value represents the number of times the compound was as sweet as sucrose.
Assay [10] can be described thus: Compound taste was tested with reference of sucrose sweetness; + / - = Sweet/ bitter.
A short description of assay [11]: compound taste was tested with reference of sucrose sweetness; - = bitter.

For `O=C(O)CC(NC(=O)C(F)(F)F)C(=O)Nc1ccc([N+](=O)[O-])c([N+](=O)[O-])c1` (centres undefined), in assay [1], the Taste result is “+ / - -”.

In the case of `O=C(O)CC(NC(=O)C(F)(F)F)C(=O)Nc1cccc(Cl)c1` (centres undefined), the Taste result in [2] is “+ / -”.

Regarding `N#Cc1cccc(NC(=O)C(CC(=O)O)NC(=O)C(F)(F)F)c1` (centres undefined), the Taste entry in assay [3] is “+/-”.

In the case of `Cc1cc([N+](=O)[O-])ccc1NC(=O)C(CC(=O)O)NC(=O)C(F)(F)F` (centres undefined), in [4], the Taste result is recorded as “+ / - -”.

`O=C(O)CC(NC(=O)C(F)(F)F)C(=O)Nc1cccc([N+](=O)[O-])c1` (centres undefined): in assay [5], the Taste entry was “+/- - -”.

For the compound `O=C(O)CC(NC(=O)C(F)(F)F)C(=O)Nc1ccc([N+](=O)[O-])cc1` (centres undefined), the Taste in assay [6] was found to be 1500.

As for `Cc1cc(NC(=O)C(CC(=O)O)NC(=O)C(F)(F)F)ccc1[N+](=O)[O-]` (centres undefined), in assay [7], the Taste entry was “+ / - -”.

With `N#Cc1ccccc1NC(=O)C(CC(=O)O)NC(=O)C(F)(F)F` (centres undefined), the Taste entry in assay [8] is reported as “Bitter”.

In assay [9], `O=C(O)CC(NC(=O)C(F)(F)F)C(=O)Nc1ccc(Cl)cc1` (centres undefined) came in with a Taste of 120.

With `O=C(O)CC(NC(=O)C(F)(F)F)C(=O)Nc1ccccc1Cl` (centres undefined), the Taste result in assay [8] is recorded as “Bitter”.

`O=C(O)CC(NC(=O)C(F)(F)F)C(=O)Nc1ccccc1` (centres undefined) yielded a Taste in [9] of 12.

On to `N#Cc1ccc(NC(=O)C(CC(=O)O)NC(=O)C(F)(F)F)cc1` (centres undefined), for which the Taste in assay [9] was found to be 3000.

As to `Cc1cccc(NC(=O)C(CC(=O)O)NC(=O)C(F)(F)F)c1` (centres undefined), the Taste entry in assay [10] was “+ / -”.

Regarding `O=C(O)CC(NC(=O)C(F)(F)F)C(=O)Nc1ccccc1[N+](=O)[O-]` (centres undefined), in [11], the Taste entry is listed as “Bitter”.

The values are drawn from ChEMBL document CHEMBL1122541, “Peptide sweeteners. 7. Taste relationships of trifluoroacetyl-L-aspartylanilides” (J Med Chem, 1984).
